In US9302999B2, “Substituted triazoles as herbicides” (E. I. DU PONT DE NEMOURS AND COMPANY, priority 2012, dated 2016):

Tests used:
Assay type in all cases: in vivo
[1] = system: barley (HORBW, Hordeum vulgare); test: Test H post-emergence, alone and in combination: barley
Source text: (§1) Seeds of plant species selected from wheat (TRZAW, Triticum aestivum), barley (HORBW, Hordeum vulgare), Kochia (KCHSC, Kochia caoparia) blackgrass (ALOMY, Alopecurus myosuroides), canarygrass (PHAMI, Phalaris minor), Italian ryegrass (LOLMU, Lolium multiflorum) common lambsquarter (CHEAL, Chenopodium album), pigweed (AMARE, Amaranthus retroflexus), Common Chickweed (STEME, Stellaria media), Russian thistle (SASKR, Salsola iberica), Wild Buckwheat (POLCO, Polygonum convolvulus), Catchweed Bedstraw (GALAP, Galium aparine), Mustard (SINAR, Sinapisar arvensis), Henbit Deadnettle (LAMAM, Lamium amplexicaule), Wild Radish (RAPRA, Raphanus raphanistrum), Field Poppy (PAPRH, Papaver rhoeas), Field Violet (VIOAR, Viola arvennsis), Scentless Chamomile (MATIN Matricaria inodora) were planted into soil and treated post-emergence with test chemicals formulated in a non-phytotoxic solvent mixture. Plants were grown in a greenhouse using supplemental lighting to maintain a photoperiod of approximately 14 hours; daytime and nighttime temperatures were approximately 23°-29° and 16°-19° Celsius, respectively. Balanced fertilizer was applied through the watering system. Treated plants and controls were maintained in a greenhouse for 20 days, after which time all species were compared to controls and visually evaluated. Plant response ratings were calculated as the mean of three replicates (unless otherwise indicated), are summarized in Table G, and are based on a scale of 0 to 100 where 0 is no effect and 100 is complete control. A dash (-) response means no test result.

[2] = system: Field Poppy (PAPRH, Papaver rhoeas); test: Test H post-emergence, alone and in combination: Field Poppy
Source text: as §1

[3] = system: wheat (TRZAW, Triticum aestivum); test: Test H post-emergence, alone and in combination: wheat
Source text: as §1

[4] = system: Scentless Chamomile (MATIN Matricaria inodora); test: Test H post-emergence, alone and in combination: Scentless Chamomile
Source text: as §1

[5] = system: Italian ryegrass (LOLMU, Lolium multiflorum); test: Test H post-emergence, alone and in combination: Italian ryegrass
Source text: as §1

[6] = system: canarygrass (PHAMI, Phalaris minor); test: Test H post-emergence, alone and in combination: canarygrass
Source text: as §1

[7] = system: Mustard (SINAR, Sinapisar arvensis); test: Test H post-emergence, alone and in combination: Mustard
Source text: as §1

[8] = system: Wild Radish (RAPRA, Raphanus raphanistrum); test: Test H post-emergence, alone and in combination: Wild Radish
Source text: as §1

[9] = system: Henbit Deadnettle (LAMAM, Lamium amplexicaule); test: Test H post-emergence, alone and in combination: Henbit Deadnettle
Source text: as §1

[10] = system: blackgrass (ALOMY, Alopecurus myosuroides); test: Test H post-emergence, alone and in combination: blackgrass
Source text: as §1

[11] = system: smartweed (ladysthumb smartweed, Polygonum persicaria); test: Test F pre-/postemergence: smartweed
Source text: Seeds of plant species selected from corn (Zea mays), soybean (Glycine max), velvetleaf (Abutilon theophrasti), lambsquarters (Chenopodium album), poinsettia, wild (wild poinsettia, Euphorbia heterophylla), pigweed, palmer (palmer pigweed, Amaranthus palmeri), waterhemp (common waterhemp, Amaranthus rudis), surinam grass (Brachiaria decumbens), crabgrass, Brazil (Brazilian crabgrass, Digitaria horizontalis), panicum, fall (fall panicum Panicum dichotomiflorum), crabgrass, large (large crabgrass, Digitaria sanguinalis), foxtail, giant (giant foxtail, Setaria faberii), foxtail, green (green foxtail Setaria viridis), goosegrass (Eleusine indica), ragweed (common ragweed, Ambrosia elatior), barnyardgrass (Echinochloa crus-galli), sandbur (southern sandbur, Cenchrus echinatus), arrowleaf sida (Sida rhombifolia), ryegrass, Italian (Italian ryegrass, Lolium multiflorum), dayflower, VA (Virginia (VA) dayflower, Commelina virginica), field bindweed (Convolvulus arvensis), cocklebur (common cocklebur, Xanthium strumarium), morningglory (Ipomoea coccinea), nightshade (eastern black nightshade, Solanum ptycanthum), kochia (Kochia scoparia), nutsedge, yellow (yellow nutsedge, Cyperus esculentus), johnsongrass (Sorghum halepense), smartweed (ladysthumb smartweed, Polygonum persicaria), and beggarticks (hairy beggarticks, Bidens pilosa), were planted into a silt loam soil and treated preemergence with test chemicals formulated in a non-phytotoxic solvent mixture which included a surfactant. At the same time, plants selected from these crop and weed species and also pigweed (Amaranthus retroflexus), waterhemp_RES1 (ALS/Triazine resistant common waterhemp, Amaranthus rudis) and waterhemp_RES2 (ALS/HPPD resistant common waterhemp, Amaranthus rudis) were planted in pots containing a planting medium comprising spaghnum peat moss, vermiculite, wetting agent and starter nutrients treated with postemergence applications of some of the test chemicals formulated in the same manner. Plants ranged in height from 2 to 18 cm for postemergence treatments (1- to 4-leaf stage).
Treated plants and controls were maintained in a greenhouse for 14 to 21 days, after which time all species were compared to controls and visually evaluated. Plant response ratings, summarized in Table E, are based on a scale of 0 to 100 where 0 is no effect and 100 is complete control. A dash (-) response means no test result.

Molecule `Cc1nn(-c2ccc(F)cc2)nc1Oc1ccnc(C(F)(F)F)c1` [Compound 129, 4-[[2-(4-fluorophenyl)-5-methyl-2H-1,2,3-triazol-4-yl]oxy]-2-(trifluoromethyl)pyridine] has an HORBW plant response ([1]; Rate 31) of 10, an HORBW plant response ([1]; Rate 62) of 15 and an HORBW plant response ([1]; Rate 125) of 15. For the same molecule, the PAPRH plant response ([2]; Rate 31) was 85, the PAPRH plant response ([2]; Rate 62) was 90 and the PAPRH plant response ([2]; Rate 125) was 90. For the same molecule, the TRZAW plant response ([3]; Rate 31) was 10, the TRZAW plant response ([3]; Rate 62) was 15 and the TRZAW plant response ([3]; Rate 125) was 15. For the same molecule, the MATIN plant response ([4]; Rate 31) was 0, the MATIN plant response ([4]; Rate 62) was 5 and the MATIN plant response ([4]; Rate 125) was 10. It also gave an LOLMU plant response ([5]; Rate 31) of 10, an LOLMU plant response ([5]; Rate 62) of 10 and an LOLMU plant response ([5]; Rate 125) of 15. The PHAMI plant response ([6]; Rate 31) was 15, the PHAMI plant response ([6]; Rate 62) was 20 and the PHAMI plant response ([6]; Rate 125) was 60. For the same molecule, the SINAR plant response ([7]; Rate 31) was 80, the SINAR plant response ([7]; Rate 62) was 95 and the SINAR plant response ([7]; Rate 125) was 95. For the same molecule, the RAPRA plant response ([8]; Rate 31) was 60, the RAPRA plant response ([8]; Rate 62) was 85 and the RAPRA plant response ([8]; Rate 125) was 90. For the same molecule, the LAMAM plant response ([9]; Rate 31) was 60, the LAMAM plant response ([9]; Rate 62) was 70 and the LAMAM plant response ([9]; Rate 125) was 80. It also gave an ALOMY plant response ([10]; Rate 31) of 5, an ALOMY plant response ([10]; Rate 62) of 10 and an ALOMY plant response ([10]; Rate 125) of 30.
With `Cc1nn(-c2ccc(C(F)(F)F)c(F)c2)nc1Cc1ccnc(C(F)(F)F)c1` [Compound 162] the “Plant response rating, Smartweed” value ([11]; Postemergence, 4 g ai/ha, scale 0 to 100) was 10, the “Plant response rating, Smartweed” value ([11]; Postemergence, 8 g ai/ha, scale 0 to 100) was 10 and the “Plant response rating, Smartweed” value ([11]; Postemergence, 16 g ai/ha, scale 0 to 100) was 10. For the same molecule, the “Plant response rating, Smartweed” value ([11]; Postemergence, 31 g ai/ha, scale 0 to 100) was 15, the “Plant response rating, Smartweed” value ([11]; Postemergence, 62 g ai/ha, scale 0 to 100) was 15 and the “Plant response rating, Smartweed” value ([11]; Preemergence, 4 g ai/ha, scale 0 to 100, 0 no effect, 100 complete control) was 0. For the same molecule, the “Plant response rating, Smartweed” value ([11]; Preemergence, 8 g ai/ha, scale 0 to 100, 0 no effect, 100 complete control) was 0, the “Plant response rating, Smartweed” value ([11]; Preemergence, 16 g ai/ha, scale 0 to 100 (0 no effect, 100 complete control)) was 0 and the “Plant response rating, Smartweed” value ([11]; Preemergence, 31 g ai/ha, scale 0 to 100 (0 no effect, 100 complete control)) was 0.
